Patent EP0321175A1, “Indane derivatives” (BEECHAM GROUP PLC, priority 1987, dated 1989)

How the values were obtained:
[1] = tested on: guinea pig tracheal spiral preparations; assay: Bronchodilation in vitro; guinea pig tracheal spiral preparations; type: cell-based; details: relative to total relaxation evoked in the presence of 10⁻³M isoprenaline; for Emax: Cavia porcellus, read-out: I.A. (Intrinsic Activity, efficacy)
Experimental: Male guinea pigs (300-600g) were stunned by a blow to the head and bled from the carotid artery. The trachea was exposed, dissected free of connective tissue, and transferred to oxygenated krebs solution at 37°C. Next, spirals (2 per trachea) were prepared by cutting the whole trachea spirally along its longitudinal axis and then dividing this spiral lengthwise. Each preparation was mounted, using silk thread, in a 10ml organ bath filled with krebs solution at 37°C and bubbled with 5% CO₂ with O₂. The resting tension of the preparations was set at 2g and changes in muscle tension were monitored isometrically by means of a UFI (2oz) force and displacement transducer (Ormed Ltd) connected to a Linseis pen recorder. All preparations were allowed to equilibrate for 60 minutes. During this equilibration period the preparations were washed by upward displacement at 15 minute intervals and, if necessary, the resting tension was readjusted to 2g using a mechanical micromanipulator system.
Once a steady resting tension had been obtained, the preparations were dosed cumulatively with the test compound (10⁻⁸-2x10⁻⁵M), and finally a maximum relaxation achieved by addition of 10⁻³M isoprenaline. The fall in tension evoked by the test compound was expressed as a percentage of the total relaxation evoked in the presence of 10⁻³M isoprenaline. Appropriate concentration-relaxation curves were then constructed and values for potency (IC₅₀) and efficacy (Intrinsic Activity, I.A.) were obtained.
The compositions of Krebs solution is: sodium chloride 118.07mM, sodium hydrogen carbonate 26.19mM, potassium chloride 4.68mM, potassium orthophosphate 1.18mM, magnesium sulphate septahydrate 1.8mM and calcium chloride 2.52mM;pH ca. 7.45.

[2] = tested on: Spontaneously hypertensive rats; assay: Blood pressure lowering activity, tail cuff method; type: in vivo
Experimental: Systolic blood pressure were recorded by a modification of the tail cuff method described by I.M. Claxton, M.G. Palfreyman, R.H. Poyser, R.L. Whiting, European Journal of Pharmacology, 37, 179 (1976). A W+W BP recorder, model 8005 was used to display pulses.Prior to all measurements rats were placed in a heated environment (33.5 ± 0.5°C) before transfer to a restraining cage. Each determination of blood pressure was the mean of at least 6 readings. Spontaneously hypertensive rats (ages 12-18 weeks) with systolic blood pressures >180 mmHg were considered hypertensive.

| SMILES | Emax [1] | % change in systolic B.P. ([2]; 1 mg/kg p.o., 1 h post dose) | % change in systolic B.P. ([2]; 1 mg/kg p.o., 2 h post dose) | % change in systolic B.P. ([2]; 1 mg/kg p.o., 4 h post dose) | further results |
| --- | --- | --- | --- | --- | --- |
| C[C@@H]1CCC(=O)N1[C@@H]1c2cc([N+](=O)[O-])ccc2C(C)(C)[C@H]1O (mixture of isomers) [Example 26, Trans-1,1-Dimethyl-5-nitro-3-(5-(R)-methyl-2-oxopyrrolidin-1-yl)indan-2-ol] | 98% |  |  |  |  |
| CC1(C)c2ccc([N+](=O)[O-])cc2[C@@H](N2CCCC2=O)[C@@H]1O (relative stereo) [Example 1, trans - 1,1-dimethyl-5-nitro-3-(2-oxopyrrolidin-1-yl)-indan-2-ol] | 88% |  |  |  | % change in systolic B.P. ([2]; 10 mg/kg p.o., 1 h post dose): -48 ± 4(n=4) %; % change in systolic B.P. ([2]; 10 mg/kg p.o., 2 h post dose): -49 ± 6(n=3) %; % change in systolic B.P. ([2]; 10 mg/kg p.o., 4 h post dose): -42 ± 4(n=6) %; % change in systolic B.P. ([2]; 10 mg/kg p.o., 6 h post dose): -30 ± 4(n=6) % |
| CC1(C)c2ccc([N+](=O)[O-])cc2[C@@H](N2CCCCC2=O)[C@@H]1O (relative stereo) [Example 3, Trans 1,1-Dimethyl-5-nitro-3-(2-oxopiperidin-1-yl) indan-2-ol] | 89% | -33 ± 5 (n=5) % | -17 ± 3 (n=4) % | -22 ± 4 (n=6) % | % change in systolic B.P. ([2]; 1 mg/kg p.o., 6 h post dose): -19 ± 5 (n=6) % |
| CC1(C)c2ccc(N)cc2[C@@H](n2ccccc2=O)[C@@H]1O (relative stereo) [Example 9, Trans-5-amino-1,1-dimethyl-3-(2-pyridon-1-yl)indan-2-ol] |  |  |  |  | % change in systolic B.P. ([2]; 3 mg/kg p.o., 1 h post dose): -12 ± 2%; % change in systolic B.P. ([2]; 3 mg/kg p.o., 2 h post dose): -16 ± 3%; % change in systolic B.P. ([2]; 3 mg/kg p.o., 4 h post dose): -14 ± 4%; % change in systolic B.P. ([2]; 3 mg/kg p.o., 6 h post dose): -11 ± 2% |
| CCc1ccc2c(c1)[C@@H](N1CCCCC1=O)[C@H](O)C2(C)C (relative stereo) [Example 17, Trans-1,1-Dimethyl-5-ethyl-3-(2-oxopiperidin-1-yl)indan-2-ol] | 76% |  |  |  |  |
| CCc1ccc2c(c1)[C@@H](n1ccccc1=O)[C@H](O)C2(C)C (relative stereo) [Example 23, Trans 1,1-Dimethyl-5-ethyl-3-(2-pyridon-1-yl)indan-2-ol] |  |  |  |  | I.A. (Intrinsic Activity, efficacy) [1]: 0.92 |
| CC1(C)C=C(N2CCCCC2=O)c2cc([N+](=O)[O-])ccc21 [Example 4, 1,1-dimethyl-5-nitro-3-(2-oxopiperidin-1-yl)ind-2-ene] | 94% |  |  |  |  |
| CC1(C)c2ccc([N+](=O)[O-])cc2[C@@H](n2ccccc2=O)[C@@H]1O [Example 5, Trans-1,1-dimethyl-5-nitro-3-(2-pyridon-1-yl)indan-2-ol] | 91% | -40 (n=1) % | -43 (n=1) % | -43 ± 4 (n=1) % | % change in systolic B.P. ([2]; 1 mg/kg p.o., 6 h post dose): -31 ± 5 (n=5) % |
| CC1(C)C=C(n2ccccc2=O)c2cc([N+](=O)[O-])ccc21 [Example 6, 1,1-Dimethyl-5-nitro-3-(2-pyridon-1-yl)ind-2-ene] | 95% | -18 ± 3% | -18 ± 3% | -13 ± 3% |  |
| CC1(C)c2ccc(C#N)cc2[C@@H](n2ccccc2=O)[C@@H]1O [Example 7, Trans-5-cyano-1,1-dimethyl-3-(2-pyridon-1-yl)-indan-2-ol] | 81% | -31 ± 3% | -22 ± 4% | -20 ± 4% | % change in systolic B.P. ([2]; 1 mg/kg p.o., 6 h post dose): -12 ± 6% |
| CC1(C)C=C(n2ccccc2=O)c2cc(C#N)ccc21 [Example 8, 5-Cyano-1,1-dimethyl-3-(2-pyridon-1-yl)ind-2-ene] | 77% | -12 ± 5% | -15 ± 3% | -26 ± 8% | % change in systolic B.P. ([2]; 1 mg/kg p.o., 6 h post dose): -21 ± 2% |
| O=C(N[C@@H]1c2cc([N+](=O)[O-])ccc2C[C@H]1O)c1ccc(F)cc1 [Example 10, Trans-1-N-(4-fluorobenzamido)-6-nitroindan-2-ol] | 59% |  |  |  |  |
| CC1(C)C=C(N2CCCCC2=O)c2ccc(C(F)(F)F)cc21 [Example 16, 1,1-dimethyl-3-(2-oxopiperidin-1-yl)-6-trifluoromethylind-2-ene] | 89% |  |  |  |  |
| CC1(C)C=C(CN2CCCC2=O)c2cc(C#N)ccc21 [Example 24, 5-Cyano-1,1-dimethyl-3-[(2-oxopyrrolidin-1-yl)methyl]ind-2-ene] | 59% |  |  |  |  |
| C[C@@H]1CCC(=O)N1C1=CC(C)(C)c2ccc([N+](=O)[O-])cc21 [Example 27, 1,1-dimethyl-5-nitro-3-(5-(R)-methyl-2-oxopyrrolidin-1-yl)ind-2-ene] | 93% |  |  |  |  |
